# PMC9488892 (Medicinal Chemistry Research, 2022)
# Tests used:
# [1] = biological target: T1, melatonin type II (MT2) receptor (Homo sapiens, UniProt P49286); format: cell-based
# T1 sequence (P49286 1-362): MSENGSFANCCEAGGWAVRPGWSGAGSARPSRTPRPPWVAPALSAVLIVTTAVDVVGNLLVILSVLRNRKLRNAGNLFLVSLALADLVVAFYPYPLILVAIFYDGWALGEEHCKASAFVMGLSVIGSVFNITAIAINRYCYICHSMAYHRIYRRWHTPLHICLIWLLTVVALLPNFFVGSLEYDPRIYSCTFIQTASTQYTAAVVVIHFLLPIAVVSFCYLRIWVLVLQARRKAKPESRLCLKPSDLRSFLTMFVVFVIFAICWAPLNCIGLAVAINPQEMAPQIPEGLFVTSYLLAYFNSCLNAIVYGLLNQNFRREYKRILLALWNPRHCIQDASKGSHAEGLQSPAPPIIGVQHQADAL
# [2] = biological target: melatonin type I (MT1) receptor (Homo sapiens, UniProt P48039); format: cell-based
# melatonin type I (MT1) receptor, sequence (P48039 whole entry): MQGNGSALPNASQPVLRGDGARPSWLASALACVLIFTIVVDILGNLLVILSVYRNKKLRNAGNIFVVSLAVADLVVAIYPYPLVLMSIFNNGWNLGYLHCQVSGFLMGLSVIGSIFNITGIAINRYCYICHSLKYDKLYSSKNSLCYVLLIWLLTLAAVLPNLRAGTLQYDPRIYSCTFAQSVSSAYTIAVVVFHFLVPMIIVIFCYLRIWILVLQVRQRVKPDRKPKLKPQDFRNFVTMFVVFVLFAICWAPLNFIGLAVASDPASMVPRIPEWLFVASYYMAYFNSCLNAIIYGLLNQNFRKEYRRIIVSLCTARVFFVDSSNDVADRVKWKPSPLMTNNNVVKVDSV
smiles,measurement,setting,value
"Cc1cc2c(cc1O)[C@@H](C)[C@H]1Oc3cc(C)c(O)cc3[C@@]1(CN1CCN(C)CC1)O2 [compound 13, (5aS,10aR,11R)-3,8,11-trimethyl-5a-((4-methylpiperazin-1-yl)methyl)-5a,10a-dihydro-11H-benzofuro[3,2-b]chromene-2,7-diol]",EC50,[1],240 µM
same,EC50,[2],200 µM
